Laboratory results: patent US10975119B2, “Selective cysteine protease inhibitors and uses thereof” (Genesis Technologies Limited, priority 2011, dated 2021)
Like-named read-outs stand apart in the source and are kept apart here.

Experiments:
Assay type in all cases: biochemical
Caspase-3 = target: T1, Caspase-3 (Homo sapiens, UniProt P42574); assay: Caspase-3 inhibitor screening assay (BioVision kit, DEVD-AFC); settings: for inhibition at 10 µM: read-out: % Inhibition at 10 uM Casp3; for inhibition at 100 µM: read-out: % Inhibition at 100 uM Casp3; for IC50: read-out: IC50 Casp3
T1 construct: mixing the compounds with the respective active caspases; purchased BioVision K153-100
T1 sequence (P42574 29-175 limits assumed): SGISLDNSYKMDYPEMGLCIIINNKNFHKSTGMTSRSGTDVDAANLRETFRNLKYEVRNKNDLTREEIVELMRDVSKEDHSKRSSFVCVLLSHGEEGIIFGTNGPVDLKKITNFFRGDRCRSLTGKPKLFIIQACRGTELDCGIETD
T1 sequence (P42574 176-277 limits assumed): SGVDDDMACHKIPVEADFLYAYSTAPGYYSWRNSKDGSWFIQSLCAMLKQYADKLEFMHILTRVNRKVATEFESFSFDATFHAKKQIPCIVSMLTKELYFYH
In short: (§1)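 Each caspase cleaved its own AFC-labelled peptide substrate, and released AFC was read by fluorescence. % inhibition came from RFU against an uninhibited control.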

Caspase-4 = target: T2, Caspase-4 (Homo sapiens, UniProt P49662); assay: Caspase-4 inhibitor screening assay (BioVision kit, LEVD-AFC); settings: for inhibition at 10 µM: read-out: % Inhibition at 10 uM Casp4; for inhibition at 100 µM: read-out: % Inhibition at 100 uM Casp4
T2 construct: mixing the compounds with the respective active caspases; purchased BioVision K154-100
T2 sequence (P49662 81-270 limits assumed): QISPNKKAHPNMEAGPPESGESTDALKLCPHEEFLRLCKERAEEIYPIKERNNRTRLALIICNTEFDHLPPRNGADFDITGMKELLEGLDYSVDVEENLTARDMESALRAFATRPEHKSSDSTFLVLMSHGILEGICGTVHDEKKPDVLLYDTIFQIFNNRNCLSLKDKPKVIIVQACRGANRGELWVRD
T2 sequence (P49662 290-377 limits assumed): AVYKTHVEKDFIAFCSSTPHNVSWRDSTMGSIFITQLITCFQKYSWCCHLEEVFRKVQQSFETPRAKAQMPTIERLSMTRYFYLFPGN
In short: as §1

Caspase-6 = target: T3, Caspase-6 (Homo sapiens, UniProt P55212); assay: Caspase-6 inhibitor screening assay (BioVision kit, VEID-AFC); settings: for inhibition at 10 µM: read-out: % Inhibition at 10 uM Casp6; for inhibition at 100 µM: read-out: % Inhibition at 100 uM Casp6; for IC50: read-out: IC50 Casp6
T3 construct: mixing the compounds with the respective active caspases; purchased BioVision K156-100
T3 sequence (P55212 24-179 limits assumed): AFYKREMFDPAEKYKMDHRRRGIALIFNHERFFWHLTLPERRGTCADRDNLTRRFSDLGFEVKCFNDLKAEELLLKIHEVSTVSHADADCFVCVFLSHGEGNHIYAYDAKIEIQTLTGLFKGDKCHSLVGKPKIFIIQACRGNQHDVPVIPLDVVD
T3 sequence (P55212 194-293 limits assumed): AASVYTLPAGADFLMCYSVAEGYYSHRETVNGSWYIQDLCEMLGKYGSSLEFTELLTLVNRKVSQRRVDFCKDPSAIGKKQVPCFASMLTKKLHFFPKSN
In short: as §1

Caspase-7 = target: T4, Caspase-7 (Homo sapiens, UniProt P55210); assay: Caspase-7 inhibitor screening assay (BioVision kit, DEVD-AFC); settings: for inhibition at 10 µM: read-out: % Inhibition at 10 uM Casp7; for inhibition at 100 µM: read-out: % Inhibition at 100 uM Casp7; for IC50: read-out: IC50 Casp7
T4 construct: mixing the compounds with the respective active caspases; purchased BioVision K157-100
T4 sequence (P55210 24-198 limits assumed): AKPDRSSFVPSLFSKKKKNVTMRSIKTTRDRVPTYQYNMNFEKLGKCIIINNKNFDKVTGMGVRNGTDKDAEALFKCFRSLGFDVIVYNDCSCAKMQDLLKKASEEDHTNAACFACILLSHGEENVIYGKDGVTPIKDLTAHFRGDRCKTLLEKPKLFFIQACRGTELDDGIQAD
T4 sequence (P55210 207-303 limits assumed): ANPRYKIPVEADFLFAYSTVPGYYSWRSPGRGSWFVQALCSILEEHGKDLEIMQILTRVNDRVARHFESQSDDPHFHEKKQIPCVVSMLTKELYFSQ
In short: as §1

Caspase-9 = target: T5, Caspase-9 (Homo sapiens, UniProt P55211); assay: Caspase-9 inhibitor screening assay (BioVision kit, LEHD-AFC); settings: for inhibition at 10 µM: read-out: % Inhibition at 10 uM Casp9; for inhibition at 100 µM: read-out: % Inhibition at 100 uM Casp9
T5 construct: purchased BioVision K159-100
T5 sequence (P55211 1-315 limits assumed): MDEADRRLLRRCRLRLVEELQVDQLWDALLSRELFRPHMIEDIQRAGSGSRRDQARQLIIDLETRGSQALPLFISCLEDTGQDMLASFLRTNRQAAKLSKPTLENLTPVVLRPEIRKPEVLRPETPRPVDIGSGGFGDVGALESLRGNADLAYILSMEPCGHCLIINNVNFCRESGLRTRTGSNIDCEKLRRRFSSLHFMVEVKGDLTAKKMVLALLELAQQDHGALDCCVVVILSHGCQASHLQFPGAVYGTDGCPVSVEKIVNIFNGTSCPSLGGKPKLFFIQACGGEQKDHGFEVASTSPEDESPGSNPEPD
T5 sequence (P55211 331-416 limits assumed): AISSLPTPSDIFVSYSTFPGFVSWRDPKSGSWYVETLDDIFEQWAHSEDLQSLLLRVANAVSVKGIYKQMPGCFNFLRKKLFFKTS
In short: as §1

Caspase-5 = target: T6, Caspase-5 (Homo sapiens, UniProt P51878); assay: Caspase-5 inhibitor screening assay (BioVision kit, WEHD-AFC); settings: for inhibition at 10 µM: read-out: % Inhibition at 10 uM Casp5; for inhibition at 100 µM: read-out: % Inhibition at 100 uM Casp5
T6 construct: mixing the compounds with the respective active caspases; purchased BioVision K155-100
T6 sequence (P51878 137-327 limits assumed): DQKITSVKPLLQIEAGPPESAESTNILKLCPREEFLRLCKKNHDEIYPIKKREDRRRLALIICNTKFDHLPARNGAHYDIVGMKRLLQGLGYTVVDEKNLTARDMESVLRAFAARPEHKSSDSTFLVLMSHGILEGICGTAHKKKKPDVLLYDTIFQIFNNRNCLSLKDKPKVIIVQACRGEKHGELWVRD
T6 sequence (P51878 347-434 limits assumed): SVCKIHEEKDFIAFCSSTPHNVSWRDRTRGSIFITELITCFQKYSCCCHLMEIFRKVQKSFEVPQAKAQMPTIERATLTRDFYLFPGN
In short: as §1

CC(C)(C)[C@H](NC(=O)c1ccc(N)c(Cl)c1)C(=O)N1CCCC1C(=O)N[C@H](/C=C/S(C)(=O)=O)CC(=O)O (stereo in doubt) [Compound 14, 4-amino-3-chlorobenzene carbonyl-t-Leu-Pro-Asp methyl vinyl sulfone]
inhibition at 10 µM (Caspase-3): 7%
inhibition at 100 µM (Caspase-3): 18%
IC50 (Caspase-3): > 100 µM
inhibition at 10 µM (Caspase-4): 100%
inhibition at 100 µM (Caspase-4): 100%
IC50 (Caspase-4; read-out: IC50 Casp4): 0.09 µM
IC50 (Caspase-4; read-out: potency (IC50) against caspase-4): 0.087 µM
inhibition at 10 µM (Caspase-6): 3%
inhibition at 100 µM (Caspase-6): 30%
IC50 (Caspase-6): > 100 µM
inhibition at 10 µM (Caspase-7): 13%
inhibition at 100 µM (Caspase-7): 91%
IC50 (Caspase-7): 24.5 µM
inhibition at 10 µM (Caspase-9): 77%
inhibition at 100 µM (Caspase-9): 99%
IC50 (Caspase-9; read-out: IC50 Casp9): 2.3 µM
IC50 (Caspase-9; read-out: potency (IC50) against caspase-9): 2.31 µM
inhibition at 10 µM (Caspase-5): 96%
inhibition at 100 µM (Caspase-5): 100%
IC50 (Caspase-5; read-out: IC50 Casp5): 0.56 µM
IC50 (Caspase-5; read-out: potency (IC50) against caspase-5): 0.563 µM

CS(=O)(=O)/C=C/[C@H](CC(=O)O)NC(=O)C1CCCN1C(=O)[C@@H](NC(=O)[C@H](CC(=O)O)NC(=O)OCc1ccccc1)C1CC1 (stereo in doubt) [Compound 28, Z-Asp-Cyclopropylglycine-Pro-Asp-methyl vinyl sulfone]
inhibition at 10 µM (Caspase-3): 91%
inhibition at 100 µM (Caspase-3): 99%
IC50 (Caspase-3): 0.78 µM
change of potency against caspase-3 relative to compound 26 (Caspase-3; replacement of t-Leu at P3 of compound 26): 7 fold
inhibition at 10 µM (Caspase-4): 73%
inhibition at 100 µM (Caspase-4): 100%
IC50 (Caspase-4; read-out: IC50 Casp4): 5.22 µM
inhibition at 10 µM (Caspase-6): 2%
inhibition at 100 µM (Caspase-6): 4%
IC50 (Caspase-6): > 100 µM
inhibition at 10 µM (Caspase-7): 87%
inhibition at 100 µM (Caspase-7): 99%
IC50 (Caspase-7): 2.5 µM
inhibition at 10 µM (Caspase-9): 54%
inhibition at 100 µM (Caspase-9): 93%
IC50 (Caspase-9; read-out: IC50 Casp9): 9.07 µM
inhibition at 10 µM (Caspase-5): 14%
inhibition at 100 µM (Caspase-5): 69%
IC50 (Caspase-5; read-out: IC50 Casp5): 46.2 µM

CC(C)(C)OC(=O)CC[C@H](NC(=O)OC(C)(C)C)C(=O)N[C@H](/C=C/S(C)(=O)=O)CC(=O)OC(C)(C)C [Compound 21, Boc-Glu(O—tBu)-Asp (O—tBu)-methyl vinyl sulfone]
inhibition at 10 µM (Caspase-3): 0%
inhibition at 100 µM (Caspase-3): 4%
IC50 (Caspase-3): > 100 µM
inhibition at 10 µM (Caspase-4): 0%
inhibition at 100 µM (Caspase-4): 4%
IC50 (Caspase-4; read-out: IC50 Casp4): > 100 µM
inhibition at 10 µM (Caspase-6): 1%
inhibition at 100 µM (Caspase-6): 10%
IC50 (Caspase-6): > 100 µM
inhibition at 10 µM (Caspase-7): 0%
inhibition at 100 µM (Caspase-7): 0%
IC50 (Caspase-7): > 100 µM
inhibition at 10 µM (Caspase-9): 1%
inhibition at 100 µM (Caspase-9): 10%
IC50 (Caspase-9; read-out: IC50 Casp9): > 100 µM
inhibition at 10 µM (Caspase-5): 3%
inhibition at 100 µM (Caspase-5): 7%
IC50 (Caspase-5; read-out: IC50 Casp5): > 100 µM

CC(C)(C)[C@H](NC(=O)c1ccc2ncccc2n1)C(=O)N1CCCC1C(=O)N[C@H](/C=C/S(C)(=O)=O)CC(=O)O (stereo in doubt) [Compound 8, (1,5-Naphthyridine-2-carbonyl)-t-Leu-Pro-Asp methyl vinyl sulfone]
inhibition at 10 µM (Caspase-3): 3%
inhibition at 100 µM (Caspase-3): 5%
IC50 (Caspase-3): > 100 µM
inhibition at 10 µM (Caspase-4): 88%
inhibition at 100 µM (Caspase-4): 100%
IC50 (Caspase-4; read-out: IC50 Casp4): 0.63 µM
inhibition at 10 µM (Caspase-6): 2%
inhibition at 100 µM (Caspase-6): 1%
IC50 (Caspase-6): > 100 µM
inhibition at 10 µM (Caspase-7): 0%
inhibition at 100 µM (Caspase-7): 0%
IC50 (Caspase-7): > 100 µM
inhibition at 10 µM (Caspase-9): 24%
inhibition at 100 µM (Caspase-9): 73%
IC50 (Caspase-9; read-out: IC50 Casp9): 47.3 µM
inhibition at 10 µM (Caspase-5): 65%
inhibition at 100 µM (Caspase-5): 97%
IC50 (Caspase-5; read-out: IC50 Casp5): 5.9 µM

CS(=O)(=O)/C=C/[C@H](CC(=O)O)NC(=O)[C@H](CCC(=O)O)NC(=O)c1ccc2ccccc2n1 [Compound 18, 2-Quinoline carbonyl-Glu-Asp methyl vinyl sulfone]
inhibition at 10 µM (Caspase-3): 4%
inhibition at 100 µM (Caspase-3): 2%
IC50 (Caspase-3): > 100 µM
inhibition at 10 µM (Caspase-4): 0%
inhibition at 100 µM (Caspase-4): 0%
IC50 (Caspase-4; read-out: IC50 Casp4): > 100 µM
inhibition at 10 µM (Caspase-6): 0%
inhibition at 100 µM (Caspase-6): 8%
IC50 (Caspase-6): > 100 µM
inhibition at 10 µM (Caspase-7): 0%
inhibition at 100 µM (Caspase-7): 7%
IC50 (Caspase-7): > 100 µM
inhibition at 10 µM (Caspase-9): 0%
inhibition at 100 µM (Caspase-9): 9%
IC50 (Caspase-9; read-out: IC50 Casp9): > 100 µM
inhibition at 10 µM (Caspase-5): 0%
inhibition at 100 µM (Caspase-5): 1%
IC50 (Caspase-5; read-out: IC50 Casp5): > 100 µM

CC(C)(C)[C@@H](NC(=O)[C@H](CC(=O)O)NC(=O)OCc1ccccc1)C(=O)N1CC[C@@H]1C(=O)N[C@H](/C=C/S(C)(=O)=O)CC(=O)O [Compound 32, Z-Asp-t-Leu-(Azetidine-2-carbonyl)-Asp-methyl vinyl sulfone]
inhibition at 10 µM (Caspase-3): 96%
inhibition at 100 µM (Caspase-3): 100%
IC50 (Caspase-3): 0.28 µM
potency against caspase-3 relative to compound 26, in words (Caspase-3; replacement of Pro at P2 of compound 26): did not affect the potency against caspase-3
inhibition at 10 µM (Caspase-4): 76%
inhibition at 100 µM (Caspase-4): 100%
IC50 (Caspase-4; read-out: IC50 Casp4): 5.63 µM
inhibition at 10 µM (Caspase-6): 0%
inhibition at 100 µM (Caspase-6): 1%
IC50 (Caspase-6): > 100 µM
inhibition at 10 µM (Caspase-7): 97%
inhibition at 100 µM (Caspase-7): 100%
IC50 (Caspase-7): 0.55 µM
inhibition at 10 µM (Caspase-9): 91%
inhibition at 100 µM (Caspase-9): 100%
IC50 (Caspase-9; read-out: IC50 Casp9): 1.12 µM
inhibition at 10 µM (Caspase-5): 23%
inhibition at 100 µM (Caspase-5): 77%
IC50 (Caspase-5; read-out: IC50 Casp5): 35.2 µM
